Measured values reported in ChEMBL document CHEMBL3885881, “DrugMatrix”.

Species: Rattus norvegicus
Assay: DrugMatrix - Regimen: Daily Repeat
Assay type: toxicity, organism-based, Sprague-Dawley
Set-up: regimen Daily Repeat, gender Male, age 6-8 weeks
Conditions: in vivo, po, route oral GAVAGE, vehicle 100 % WATER; for ABSOLUTE BASOPHIL / ABSOLUTE EOSINOPHIL / ABSOLUTE LYMPHOCYTE / ABSOLUTE MONOCYTE / ABSOLUTE SEGMENTED NEUTROPHIL / BASOPHIL / EOSINOPHIL / ERYTHROCYTE COUNT / HEMATOCRIT / HEMOGLOBIN / LEUKOCYTE COUNT / LYMPHOCYTE / MEAN CORPUSCULAR HEMOGLOBIN / MEAN CORPUSCULAR HEMOGLOBIN CONCENTRATION / MEAN CORPUSCULAR VOLUME / MONOCYTE / NEUTROPHIL / NUCLEATED RED BLOOD CELLS / PLATELET COUNT: tissue Blood; for ALANINE AMINOTRANSFERASE / ALKALINE PHOSPHATASE / ASPARTATE AMINOTRANSFERASE / BLOOD UREA NITROGEN / CARBON DIOXIDE / CHLORIDE / CHOLESTEROL / CREATINE PHOSPHOKINASE / CREATININE / GLUCOSE / LACTATE DEHYDROGENASE / LIPASE / PHOSPHORUS / POTASSIUM / SODIUM / TOTAL BILIRUBIN / TOTAL PROTEIN / URIC ACID: tissue Plasma
[1] = 0 mg/kg, 72 h, dose level Control, time 3 day
[2] = 0 mg/kg, 120 h, dose level Control, time 5 day
[3] = 10 mg/kg, 72 h, dose level Low, time 3 day
[4] = 10 mg/kg, 120 h, dose level Low, time 5 day

Cn1c(=O)c2[nH]cnc2n(C)c1=O.O [THEOPHYLLINE]
ABSOLUTE BASOPHIL [1]: 0 CELLS/uL | ABSOLUTE EOSINOPHIL [1]: 168.33 CELLS/uL | ABSOLUTE LYMPHOCYTE [1]: 13654.17 CELLS/uL | ABSOLUTE MONOCYTE [1]: 121 CELLS/uL | ABSOLUTE SEGMENTED NEUTROPHIL [1]: 1223.17 CELLS/uL | BASOPHIL [1]: 0% | EOSINOPHIL [1]: 1.17% | ERYTHROCYTE COUNT [1]: 5.7 x10E6/uL | HEMATOCRIT [1]: 35.33% | HEMOGLOBIN [1]: 13.97 G/DL | LEUKOCYTE COUNT [1]: 15.17 x10E3/uL | LYMPHOCYTE [1]: 89.83% | MEAN CORPUSCULAR HEMOGLOBIN [1]: 24.53 pg | MEAN CORPUSCULAR HEMOGLOBIN CONCENTRATION [1]: 39.53 G/DL | MEAN CORPUSCULAR VOLUME [1]: 62.05 fL | MONOCYTE [1]: 0.83% | NEUTROPHIL [1]: 8.17% | NUCLEATED RED BLOOD CELLS [1]: 0 /100WBC | PLATELET COUNT [1]: 1312.17 x10E3/uL | ALANINE AMINOTRANSFERASE [1]: 50.83 u/L | ALKALINE PHOSPHATASE [1]: 334.17 u/L | ASPARTATE AMINOTRANSFERASE [1]: 82.17 u/L | BLOOD UREA NITROGEN [1]: 15.5 mg/dL | CARBON DIOXIDE [1]: 31.33 mmol/L | CHLORIDE [1]: 99.83 MEQ/L | CHOLESTEROL [1]: 76 mg/dL | CREATINE PHOSPHOKINASE [1]: 272.17 u/L | CREATININE [1]: 0.17 mg/dL | GLUCOSE [1]: 143 mg/dL | LACTATE DEHYDROGENASE [1]: 157.5 u/L | LIPASE [1]: 9.33 u/L | PHOSPHORUS [1]: 12.18 mg/dL | POTASSIUM [1]: 6.78 MEQ/L | SODIUM [1]: 143.9 MEQ/L | TOTAL BILIRUBIN [1]: 0.22 mg/dL | TOTAL PROTEIN [1]: 5.85 G/DL | URIC ACID [1]: 1.7 mg/dL | ABSOLUTE BASOPHIL [2]: 0 CELLS/uL | ABSOLUTE EOSINOPHIL [2]: 0 CELLS/uL | ABSOLUTE LYMPHOCYTE [2]: 13539.33 CELLS/uL | ABSOLUTE MONOCYTE [2]: 177.67 CELLS/uL | ABSOLUTE SEGMENTED NEUTROPHIL [2]: 2116.33 CELLS/uL | BASOPHIL [2]: 0% | EOSINOPHIL [2]: 0% | ERYTHROCYTE COUNT [2]: 5.78 x10E6/uL | HEMATOCRIT [2]: 36.13% | HEMOGLOBIN [2]: 14.1 G/DL | LEUKOCYTE COUNT [2]: 15.83 x10E3/uL | LYMPHOCYTE [2]: 85.83% | MEAN CORPUSCULAR HEMOGLOBIN [2]: 24.42 pg | MEAN CORPUSCULAR HEMOGLOBIN CONCENTRATION [2]: 39 G/DL | MEAN CORPUSCULAR VOLUME [2]: 62.55 fL | MONOCYTE [2]: 0.83% | NEUTROPHIL [2]: 13.33% | NUCLEATED RED BLOOD CELLS [2]: 0.17 /100WBC | PLATELET COUNT [2]: 1281.17 x10E3/uL | ALANINE AMINOTRANSFERASE [2]: 55.5 u/L | ALKALINE PHOSPHATASE [2]: 345 u/L | ASPARTATE AMINOTRANSFERASE [2]: 92.5 u/L | BLOOD UREA NITROGEN [2]: 16.5 mg/dL | CARBON DIOXIDE [2]: 26.5 mmol/L | CHLORIDE [2]: 103.5 MEQ/L | CHOLESTEROL [2]: 78.5 mg/dL | CREATINE PHOSPHOKINASE [2]: 381.5 u/L | CREATININE [2]: 0.21 mg/dL | GLUCOSE [2]: 161.83 mg/dL | LACTATE DEHYDROGENASE [2]: 487.5 u/L | LIPASE [2]: 10.17 u/L | PHOSPHORUS [2]: 11.83 mg/dL | POTASSIUM [2]: 6.4 MEQ/L | SODIUM [2]: 146.95 MEQ/L | TOTAL BILIRUBIN [2]: 0.22 mg/dL | TOTAL PROTEIN [2]: 6.22 G/DL | URIC ACID [2]: 1.83 mg/dL | ABSOLUTE BASOPHIL [3]: 0 CELLS/uL | ABSOLUTE EOSINOPHIL [3]: 319 CELLS/uL | ABSOLUTE LYMPHOCYTE [3]: 14175 CELLS/uL | ABSOLUTE MONOCYTE [3]: 161.67 CELLS/uL | ABSOLUTE SEGMENTED NEUTROPHIL [3]: 1511 CELLS/uL | BASOPHIL [3]: 0% | EOSINOPHIL [3]: 2% | ERYTHROCYTE COUNT [3]: 5.5 x10E6/uL | HEMATOCRIT [3]: 34.43% | HEMOGLOBIN [3]: 13.03 G/DL | LEUKOCYTE COUNT [3]: 16.17 x10E3/uL | LYMPHOCYTE [3]: 87.67% | MEAN CORPUSCULAR HEMOGLOBIN [3]: 23.7 pg | MEAN CORPUSCULAR HEMOGLOBIN CONCENTRATION [3]: 37.87 G/DL | MEAN CORPUSCULAR VOLUME [3]: 62.57 fL | MONOCYTE [3]: 1% | NEUTROPHIL [3]: 9.33% | NUCLEATED RED BLOOD CELLS [3]: 0 /100WBC | PLATELET COUNT [3]: 1231 x10E3/uL | ALANINE AMINOTRANSFERASE [3]: 51.33 u/L | ALKALINE PHOSPHATASE [3]: 320.67 u/L | ASPARTATE AMINOTRANSFERASE [3]: 113 u/L | BLOOD UREA NITROGEN [3]: 12.33 mg/dL | CARBON DIOXIDE [3]: 28.33 mmol/L | CHLORIDE [3]: 101.33 MEQ/L | CHOLESTEROL [3]: 94 mg/dL | CREATINE PHOSPHOKINASE [3]: 788.33 u/L | CREATININE [3]: 0.2 mg/dL | GLUCOSE [3]: 138.33 mg/dL | LACTATE DEHYDROGENASE [3]: 1127.33 u/L | LIPASE [3]: 9.67 u/L | PHOSPHORUS [3]: 11.8 mg/dL | POTASSIUM [3]: 6.43 MEQ/L | SODIUM [3]: 144.43 MEQ/L | TOTAL BILIRUBIN [3]: 0.2 mg/dL | TOTAL PROTEIN [3]: 5.7 G/DL | URIC ACID [3]: 1.63 mg/dL | ABSOLUTE BASOPHIL [4]: 0 CELLS/uL | ABSOLUTE EOSINOPHIL [4]: 162 CELLS/uL | ABSOLUTE LYMPHOCYTE [4]: 12014 CELLS/uL | ABSOLUTE MONOCYTE [4]: 120 CELLS/uL | ABSOLUTE SEGMENTED NEUTROPHIL [4]: 1804 CELLS/uL | BASOPHIL [4]: 0% | EOSINOPHIL [4]: 1% | ERYTHROCYTE COUNT [4]: 5.5 x10E6/uL | HEMATOCRIT [4]: 34.77% | HEMOGLOBIN [4]: 13.6 G/DL | LEUKOCYTE COUNT [4]: 14.1 x10E3/uL | LYMPHOCYTE [4]: 85.67% | MEAN CORPUSCULAR HEMOGLOBIN [4]: 24.7 pg | MEAN CORPUSCULAR HEMOGLOBIN CONCENTRATION [4]: 39.13 G/DL | MEAN CORPUSCULAR VOLUME [4]: 63.2 fL | MONOCYTE [4]: 1% | NEUTROPHIL [4]: 12.33% | NUCLEATED RED BLOOD CELLS [4]: 0 /100WBC | PLATELET COUNT [4]: 1229 x10E3/uL | ALANINE AMINOTRANSFERASE [4]: 56 u/L | ALKALINE PHOSPHATASE [4]: 334.33 u/L | ASPARTATE AMINOTRANSFERASE [4]: 113.67 u/L | BLOOD UREA NITROGEN [4]: 15 mg/dL | CARBON DIOXIDE [4]: 23.33 mmol/L | CHLORIDE [4]: 103.33 MEQ/L | CHOLESTEROL [4]: 77.33 mg/dL | CREATINE PHOSPHOKINASE [4]: 1028.67 u/L | CREATININE [4]: 0.23 mg/dL | GLUCOSE [4]: 151.33 mg/dL | LACTATE DEHYDROGENASE [4]: 644.67 u/L | LIPASE [4]: 9 u/L | PHOSPHORUS [4]: 11.9 mg/dL | POTASSIUM [4]: 5.95 MEQ/L | SODIUM [4]: 143.77 MEQ/L | TOTAL BILIRUBIN [4]: 0.2 mg/dL | TOTAL PROTEIN [4]: 5.97 G/DL | URIC ACID [4]: 1.33 mg/dL
